According to patent US20170065564A1, “BIS-CYCLIC GUANIDINE COMPOUND COMPOSITIONS, METHODS OF USE AND TREATMENT THEREOF” (University of South Florida, priority 2014, published 2017):

What was measured:
Type in all cases: cell-based
Klebsiella pneumoniae = test: MIC micro broth dilution assay; design: key to stacked score activity, 100/MIC, K: stacked score = 100/MIC; settings: K. pneumoniae
Procedure: (§1) For this study we used a representative panel of multi-drug resistant clinical ESKAPE pathogen isolates (Supplemental Table S6).^42 43 3a, 44 45 Gram-positive organisms were grown in tryptic soy broth media (TSB), whilst Gram-negative organisms were grown in lysogeny Broth (LB), as described by us previously. ^43 MIC and MBC determination assays.
(§2) Broth cultures of ESKAPE strains were grown overnight before being diluted 1 in 1,000 in fresh media. Sterile 96-well plates were loaded with culture and compounds (in DMF) were added at decreasing concentrations to equal a total volume of 200 μl per well. Care was taken to not add more than 2.0% DMF to any well. Plates were then incubated at 37° C., and MICs determined after 24 hours by visual inspection for a lack of turbidity in wells. All assays were performed in triplicate with identical results obtained. For both the scaffold ranking and positional scanning samples, relative broad-spectrum activity was determined via stacked scores: […]

Staphylococcus aureus = test: MIC micro broth dilution assay; design: key to stacked score activity, 100/MIC, S: stacked score = 100/MIC; settings: S. aureus
Procedure: as §1, §2

Enterococcus faecium = test: MIC micro broth dilution assay; design: key to stacked score activity, 100/MIC, E: stacked score = 100/MIC; settings: E. faecium
Procedure: as §1, §2

Enterobacter cloacae = test: MIC micro broth dilution assay; design: key to stacked score activity, 100/MIC, E: stacked score = 100/MIC; settings: E. cloacae
Procedure: as §1, §2

Acinetobacter baumannii = test: MIC micro broth dilution assay; design: key to stacked score activity, 100/MIC, A: stacked score = 100/MIC; settings: A. baumannii
Procedure: as §1, §2

ESKAPE pathogens = test: MIC micro broth dilution assay, statements and stacked scores over all ESKAPE pathogens
Procedure: as §1
as §2, with “The minimum inhibitory concentration (MIC) for the combinatorial libraries, deconvolved 2157 library, and individual compounds were determined as follows. Broth” for “Broth”

| SMILES | stacked score activity, 100/MIC, K (Klebsiella pneumoniae) | stacked score activity, 100/MIC, S (Staphylococcus aureus) | stacked score activity, 100/MIC, E (Enterococcus faecium) | stacked score activity, 100/MIC, E (Enterobacter cloacae) | stacked score activity, 100/MIC, A (Acinetobacter baumannii) | pathogens against which the compound showed activity at 4 ug/ml (ESKAPE pathogens; dose 4 ug/ml, letters E,S,K,A,P,E = ESKAPE pathogens, — = none) | pathogens against which the compound showed activity at 5 ug/ml (ESKAPE pathogens; dose 5 ug/ml, letters E,S,K,A,P,E = ESKAPE pathogens, — = none) | pathogens against which the compound showed activity at 10 ug/ml (ESKAPE pathogens; dose 10 ug/ml, letters E,S,K,A,P,E = ESKAPE pathogens, — = none) | pathogens against which the compound showed activity at 25 ug/ml (ESKAPE pathogens; dose 25 ug/ml, letters E,S,K,A,P,E = ESKAPE pathogens, — = none) | stacked score Total (ESKAPE pathogens; stacked score over all ESKAPE pathogens (details in Table S4b)) | Total stacked score (ESKAPE pathogens; sum over all six ESKAPE pathogens) |
| --- | --- | --- | --- | --- | --- | --- | --- | --- | --- | --- | --- |
| CCCCCCCN1C(=N)NC[C@@H]1CCCCN1CCNC1=N [Compound 28] | 0 | 0 | 0 | 0 | 0 | – | – | – | – | – | – |
| CCCCCCCN1C(=N)NC[C@@H]1CCCCN1CCN(CCc2cccc(C)c2)C1=N [Compound 29] | 0 | 4 | 0 | 0 | 0 | – | – | – | – | – | – |
| CCCCC1CN(CCCCC2CNC(=N)N2CCC23CC4CC(CC(C4)C2)C3)C(=N)N1CCCCC1CCCCC1 (stereo not shown) [Compound 20] | 20 | 20 | 50 | 20 | 25 | EAP | ESKAPE | ESKAPE | ESKAPE | 160 | 160 |
| CCC(C)CN1C(=N)N(CCCC[C@H]2CNC(=N)N2CC2CCCCC2)C[C@@H]1C(C)CC (stereo partly shown) [Compound 42] | 0 | 4 | 0 | 0 | 0 | – | – | – | – | – | – |
| CCCCCCCN1C(=N)NC[C@@H]1CCCCN1C[C@@H](CCC)NC1=N [Compound 34] | 0 | 4 | 0 | 0 | 0 | – | – | – | – | – | – |
| CCCCCCCN1C(=N)NC[C@@H]1CCCCN1C[C@@H](CCC)N(CC(C)CC)C1=N (stereo partly shown) [Compound 36] | 0 | 4 | 0 | 0 | 0 | – | – | – | – | – | – |
| CCCCCCCN1C(=N)NC[C@@H]1CCCCN1CCN(CC(C)CC)C1=N (stereo partly shown) [Compound 30] | 0 | 0 | 0 | 0 | 0 | – | – | – | – | – | – |
| N=C1NCCN1CCCC[C@H]1CNC(=N)N1CC1CCCCC1 [Compound 37] | 0 | 0 | 0 | 0 | 0 | – | – | – | – | – | – |
| CCC[C@@H]1CN(CCCC[C@H]2CNC(=N)N2CC2CCC(C)CC2)C(=N)N1CC(C)CC (stereo partly shown) [Compound 54] | 0 | 4 | 0 | 0 | 0 | – | – | – | – | – | – |
| N=C1NC[C@H](CCCCN2C[C@@H](Cc3cccc4ccccc34)N(CCc3ccc(-c4ccccc4)cc3)C2=N)N1CCC12CC3CC(CC(C3)C1)C2 [Compound 24] | 0 | 10 | 4 | 0 | 0 | – | – | – | – | – | – |
| CCC[C@@H]1CN(CCCC[C@H]2CNC(=N)N2CC2CCCCC2)C(=N)N1 [Compound 43] | 0 | 0 | 0 | 0 | 0 | – | – | – | – | – | – |
| CCCCCCCN1C(=N)NC[C@@H]1CCCCN1C[C@H](C(C)CC)N(CC(C)CC)C1=N (stereo partly shown) [Compound 33] | 0 | 4 | 0 | 0 | 0 | – | – | – | – | – | – |
| Cc1cccc(CCN2CCN(CCCC[C@H]3CNC(=N)N3CC3CCC(C)CC3)C2=N)c1 (stereo partly shown) [Compound 47] | 0 | 4 | 0 | 0 | 0 | – | – | – | – | – | – |
| CCC(C)[C@H]1CN(CCCC[C@H]2CNC(=N)N2CC2CCCCC2)C(=N)N1CCc1cccc(C)c1 (stereo partly shown) [Compound 41] | 0 | 4 | 0 | 0 | 0 | – | – | – | – | – | – |
| CCC(C)[C@H]1CN(CCCC[C@H]2CNC(=N)N2CC2CCCCC2)C(=N)N1 (stereo partly shown) [Compound 40] | 0 | 0 | 0 | 0 | 0 | – | – | – | – | – | – |
| CCC[C@@H]1CN(CCCC[C@H]2CNC(=N)N2CC2CCC(C)CC2)C(=N)N1 (stereo partly shown) [Compound 52] | 0 | 4 | 0 | 0 | 0 | – | – | – | – | – | – |
| CC1CCC(CN2C(=N)NC[C@@H]2CCCCN2CCNC2=N)CC1 (stereo partly shown) [Compound 46] | 0 | 0 | 0 | 0 | 0 | – | – | – | – | – | – |
| CCC(C)[C@H]1CN(CCCC[C@H]2CNC(=N)N2CC2CCC(C)CC2)C(=N)N1 (stereo partly shown) [Compound 49] | 0 | 4 | 0 | 0 | 0 | – | – | – | – | – | – |
| CCC[C@@H]1CN(CCCC[C@H]2CNC(=N)N2CC2CCCCC2)C(=N)N1CCc1cccc(C)c1 [Compound 44] | 0 | 4 | 0 | 0 | 0 | – | – | – | – | – | – |
| CCC(C)CN1CCN(CCCC[C@H]2CNC(=N)N2CC2CCCCC2)C1=N (stereo partly shown) [Compound 39] | 0 | 0 | 0 | 0 | 0 | – | – | – | – | – | – |
| Cc1cccc(CCN2CCN(CCCC[C@H]3CNC(=N)N3CC3CCCCC3)C2=N)c1 [Compound 38] | 0 | 4 | 0 | 0 | 0 | – | – | – | – | – | – |
| CCC[C@@H]1CN(CCCC[C@H]2CNC(=N)N2CC2CCC(C)CC2)C(=N)N1CCc1cccc(C)c1 (stereo partly shown) [Compound 53] | 0 | 4 | 0 | 0 | 0 | – | – | – | – | – | – |
| CCC(C)CN1C(=N)N(CCCC[C@H]2CNC(=N)N2CC2CCC(C)CC2)C[C@@H]1C(C)CC (stereo partly shown) [Compound 51] | 0 | 4 | 0 | 0 | 0 | – | – | – | – | – | – |
| CCCCCCCN1C(=N)NC[C@@H]1CCCCN1C[C@H](C(C)CC)NC1=N (stereo partly shown) [Compound 31] | 0 | 4 | 0 | 0 | 0 | – | – | – | – | – | – |
| CCC(C)CN1CCN(CCCC[C@H]2CNC(=N)N2CC2CCC(C)CC2)C1=N (stereo partly shown) [Compound 48] | 0 | 0 | 0 | 0 | 0 | – | – | – | – | – | – |
| CCC[C@@H]1CN(CCCC[C@H]2CNC(=N)N2CC2CCCCC2)C(=N)N1CC(C)CC (stereo partly shown) [Compound 45] | 0 | 4 | 0 | 0 | 0 | – | – | – | – | – | – |
